Measurements reported in PubChem BioAssay (NCI).
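Grown in 96-well plates, cells were treated for 48 hours with each compound at five concentrations. Insufficient inhibition: endpoint recorded as highest concentration tested. TGI: concentration producing complete growth inhibition.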

Key:
Experiment in all cases: DTP human tumour cell line panel, 48 h
SN12C renal = test system: SN12C renal
M14 melanoma = test system: M14 melanoma
NCI-H460 lung = test system: NCI-H460 lung
EKVX NSCLC = test system: EKVX NSCLC
786-0 renal = test system: 786-0 renal
SNB-75 CNS = test system: SNB-75 CNS
KM12 colon = test system: KM12 colon
NCI-H23 lung = test system: NCI-H23 lung
LOX IMVI melanoma = test system: LOX IMVI melanoma
CCRF-CEM leukemia = test system: CCRF-CEM leukemia
IGROV1 ovarian = test system: IGROV1 ovarian
HL-60(TB) leukemia = test system: HL-60(TB) leukemia
SK-OV-3 ovarian = test system: SK-OV-3 ovarian
COLO 205 colon = test system: COLO 205 colon
SW-620 colon = test system: SW-620 colon
A549 NSCLC = test system: A549 NSCLC
K-562 leukemia = test system: K-562 leukemia
HS 578T breast = test system: HS 578T breast
UO-31 renal = test system: UO-31 renal
MOLT-4 leukemia = test system: MOLT-4 leukemia
CAKI-1 renal = test system: CAKI-1 renal
OVCAR-4 ovarian = test system: OVCAR-4 ovarian
RPMI-8226 leukemia = test system: RPMI-8226 leukemia
TK-10 renal = test system: TK-10 renal
MDA-MB-231 breast = test system: MDA-MB-231 breast
NCI/ADR-RES ovarian = test system: NCI/ADR-RES ovarian
UACC-62 melanoma = test system: UACC-62 melanoma
SF-268 CNS = test system: SF-268 CNS
SR leukemia = test system: SR leukemia
MCF7 breast = test system: MCF7 breast
HT29 colon = test system: HT29 colon
HOP-92 NSCLC = test system: HOP-92 NSCLC
A498 renal = test system: A498 renal
HCC-2998 colon = test system: HCC-2998 colon
BT-549 breast = test system: BT-549 breast
HCT-116 colon = test system: HCT-116 colon
U251 CNS = test system: U251 CNS
HOP-62 NSCLC = test system: HOP-62 NSCLC
NCI-H522 lung = test system: NCI-H522 lung
MDA-MB-435 = test system: MDA-MB-435
HCT-15 colon = test system: HCT-15 colon
OVCAR-5 ovarian = test system: OVCAR-5 ovarian
SK-MEL-28 melanoma = test system: SK-MEL-28 melanoma
SNB-19 CNS = test system: SNB-19 CNS
T-47D breast = test system: T-47D breast
OVCAR-8 ovarian = test system: OVCAR-8 ovarian
SK-MEL-5 melanoma = test system: SK-MEL-5 melanoma
UACC-257 melanoma = test system: UACC-257 melanoma
MDA-N = test system: MDA-N
RXF 393 renal = test system: RXF 393 renal
DU-145 prostate = test system: DU-145 prostate
OVCAR-3 ovarian = test system: OVCAR-3 ovarian
SF-295 CNS = test system: SF-295 CNS
ACHN renal = test system: ACHN renal
SK-MEL-2 melanoma = test system: SK-MEL-2 melanoma
NCI-H226 lung = test system: NCI-H226 lung
PC-3 prostate = test system: PC-3 prostate
MALME-3M melanoma = test system: MALME-3M melanoma
SF-539 CNS = test system: SF-539 CNS

For `COc1ccc2oc(=Nc3ccc(F)cc3)c(C(N)=O)cc2c1`, the TGI (SN12C renal) was > 100 µM, the TGI (M14 melanoma) was > 100 µM and the TGI (NCI-H460 lung) was > 100 µM. For the same molecule, the TGI (EKVX NSCLC) was > 100 µM, the TGI (786-0 renal) was 40.4 µM and the TGI (SNB-75 CNS) was 29.5 µM. For the same molecule, the TGI (KM12 colon) was > 100 µM, the TGI (NCI-H23 lung) was > 100 µM and the TGI (LOX IMVI melanoma) was > 100 µM. For the same molecule, the TGI (CCRF-CEM leukemia) was > 100 µM, the TGI (IGROV1 ovarian) was > 100 µM and the TGI (HL-60(TB) leukemia) was > 100 µM. The TGI (SK-OV-3 ovarian) was 52.1 µM, the TGI (COLO 205 colon) was > 100 µM and the TGI (SW-620 colon) was > 100 µM. For the same molecule, the TGI (A549 NSCLC) was > 100 µM, the TGI (K-562 leukemia) was > 100 µM and the TGI (HS 578T breast) was > 100 µM. For the same molecule, the TGI (UO-31 renal) was > 100 µM, the TGI (MOLT-4 leukemia) was > 100 µM and the TGI (CAKI-1 renal) was > 100 µM. The TGI (OVCAR-4 ovarian) was > 100 µM, the TGI (RPMI-8226 leukemia) was > 100 µM and the TGI (TK-10 renal) was 58 µM. The TGI (MDA-MB-231 breast) was 39.3 µM, the TGI (NCI/ADR-RES ovarian) was > 100 µM and the TGI (UACC-62 melanoma) was > 100 µM. The TGI (SF-268 CNS) was > 100 µM, the TGI (SR leukemia) was > 100 µM and the TGI (MCF7 breast) was > 100 µM. The TGI (HT29 colon) was > 100 µM, the TGI (HOP-92 NSCLC) was 95.5 µM and the TGI (A498 renal) was 58.7 µM. The TGI (HCC-2998 colon) was > 100 µM, the TGI (BT-549 breast) was > 100 µM and the TGI (HCT-116 colon) was > 100 µM. The TGI (U251 CNS) was > 100 µM, the TGI (HOP-62 NSCLC) was > 100 µM and the TGI (NCI-H522 lung) was > 100 µM. The TGI (MDA-MB-435) was > 100 µM, the TGI (HCT-15 colon) was > 100 µM and the TGI (OVCAR-5 ovarian) was > 100 µM. For the same molecule, the TGI (SK-MEL-28 melanoma) was > 100 µM, the TGI (SNB-19 CNS) was > 100 µM and the TGI (T-47D breast) was 94.8 µM. For the same molecule, the TGI (OVCAR-8 ovarian) was > 100 µM, the TGI (SK-MEL-5 melanoma) was > 100 µM and the TGI (UACC-257 melanoma) was > 100 µM. The TGI (MDA-N) was > 100 µM, the TGI (RXF 393 renal) was 37.3 µM and the TGI (DU-145 prostate) was > 100 µM. The TGI (OVCAR-3 ovarian) was > 100 µM, the TGI (SF-295 CNS) was > 100 µM and the TGI (ACHN renal) was > 100 µM. For the same molecule, the TGI (SK-MEL-2 melanoma) was 74.7 µM, the TGI (NCI-H226 lung) was > 100 µM and the TGI (PC-3 prostate) was > 100 µM. The TGI (MALME-3M melanoma) was > 100 µM.
`CC(=O)OCc1ccc(O)c(C=O)c1` was tested, and the TGI (SN12C renal) was > 100 µM, the TGI (M14 melanoma) was > 100 µM and the TGI (NCI-H460 lung) was > 100 µM. The TGI (EKVX NSCLC) was > 100 µM, the TGI (786-0 renal) was > 100 µM and the TGI (SNB-75 CNS) was > 100 µM. The TGI (KM12 colon) was > 100 µM, the TGI (NCI-H23 lung) was > 100 µM and the TGI (LOX IMVI melanoma) was > 100 µM. The TGI (CCRF-CEM leukemia) was > 100 µM, the TGI (IGROV1 ovarian) was > 100 µM and the TGI (HL-60(TB) leukemia) was > 100 µM. For the same molecule, the TGI (SK-OV-3 ovarian) was > 100 µM, the TGI (COLO 205 colon) was > 100 µM and the TGI (SW-620 colon) was > 100 µM. For the same molecule, the TGI (A549 NSCLC) was > 100 µM, the TGI (K-562 leukemia) was > 100 µM and the TGI (HS 578T breast) was > 100 µM. For the same molecule, the TGI (UO-31 renal) was > 100 µM, the TGI (MOLT-4 leukemia) was > 100 µM and the TGI (CAKI-1 renal) was > 100 µM. For the same molecule, the TGI (OVCAR-4 ovarian) was > 100 µM, the TGI (RPMI-8226 leukemia) was > 100 µM and the TGI (TK-10 renal) was > 100 µM. For the same molecule, the TGI (MDA-MB-231 breast) was > 100 µM, the TGI (NCI/ADR-RES ovarian) was > 100 µM and the TGI (UACC-62 melanoma) was > 100 µM. For the same molecule, the TGI (SF-268 CNS) was > 100 µM, the TGI (SR leukemia) was > 100 µM and the TGI (SF-539 CNS) was > 100 µM. For the same molecule, the TGI (MCF7 breast) was > 100 µM, the TGI (HT29 colon) was > 100 µM and the TGI (HOP-92 NSCLC) was > 100 µM. The TGI (HCC-2998 colon) was > 100 µM, the TGI (BT-549 breast) was > 100 µM and the TGI (HCT-116 colon) was > 100 µM. The TGI (U251 CNS) was > 100 µM, the TGI (HOP-62 NSCLC) was > 100 µM and the TGI (NCI-H522 lung) was > 100 µM. For the same molecule, the TGI (MDA-MB-435) was > 100 µM, the TGI (HCT-15 colon) was > 100 µM and the TGI (OVCAR-5 ovarian) was > 100 µM. For the same molecule, the TGI (SK-MEL-28 melanoma) was > 100 µM, the TGI (SNB-19 CNS) was > 100 µM and the TGI (T-47D breast) was > 100 µM. The TGI (OVCAR-8 ovarian) was > 100 µM, the TGI (SK-MEL-5 melanoma) was > 100 µM and the TGI (UACC-257 melanoma) was > 100 µM. For the same molecule, the TGI (MDA-N) was > 100 µM, the TGI (RXF 393 renal) was > 100 µM and the TGI (DU-145 prostate) was > 100 µM. For the same molecule, the TGI (OVCAR-3 ovarian) was > 100 µM, the TGI (SF-295 CNS) was > 100 µM and the TGI (ACHN renal) was > 100 µM. The TGI (SK-MEL-2 melanoma) was > 100 µM, the TGI (NCI-H226 lung) was > 100 µM and the TGI (PC-3 prostate) was > 100 µM. The TGI (MALME-3M melanoma) was > 100 µM.
